Data taken from the Deep4Chem optical property database.
“And” between values parts separate entries of the source, which are not always exact repeats. Equal values may be shown once. Blank lines part the entries; values can stand above or below the compound they belong to.

Experiment: photoluminescence quantum yield (fraction); solvent given as SMILES
[1] = in O=P(c1ccccc1)(c1ccccc1)c1ccccc1Oc1ccccc1P(=O)(c1ccccc1)c1ccccc1

Compound: CCC(C)(C)c1ccc2c(c1)C(CCOC)(CCOC)c1cc(-c3ccc(-c4ccc5c(c4)C(CCOC)(CCOC)c4cc(C(C)(C)CC)ccc4-5)cc3)ccc1-2
photoluminescence quantum yield (in C1CCCCC1): 0.9

Compound: O=C1c2ccccc2-c2cccc(O)c21
photoluminescence quantum yield (in C1CCCCC1): 0.0129
photoluminescence quantum yield (in C1COCCO1): 0.0284
photoluminescence quantum yield (in CC#N): 0.053
photoluminescence quantum yield (in CC(C)O): 0.024
photoluminescence quantum yield (in CCCCO): 0.022
photoluminescence quantum yield (in CCCO): 0.021
photoluminescence quantum yield (in CCO): 0.0197
photoluminescence quantum yield (in CCOC(C)=O): 0.0383
photoluminescence quantum yield (in CCOCC): 0.022
photoluminescence quantum yield (in CO): 0.012

Compound: Cc1ccc2nc3c(=O)[nH]c(=O)[nH]c3nc2c1C
photoluminescence quantum yield (in CC#N): 0.019

Compound: CC1(C)c2ccccc2N(c2ccc3c(c2)Oc2ccccc2S3(=O)=O)c2ccccc21
photoluminescence quantum yield (in Cc1ccccc1): 0.48
photoluminescence quantum yield [1]: 0.98

Compound: CC1=[N+]2C(=Cc3ccc(C)n3[B-]2(F)F)C=C1c1cc2n(c1)[B-](F)(F)[N+]1=CC=CC1=C2c1c(C)cc(C)cc1C
photoluminescence quantum yield (in C1CCCCC1): 0.98
photoluminescence quantum yield (in CCOC(C)=O): 0.11

Compound: CC(C)(C)NS(=O)(=O)c1ccc2c(c1)C(=O)/C(=C1\Sc3ccc(S(=O)(=O)NC(C)(C)C)cc3C1=O)S2
photoluminescence quantum yield (in C1COCCO1): 0.611
photoluminescence quantum yield (in CN(C)C=O): 0.352
photoluminescence quantum yield (in CS(C)=O): 0.009

Compound: Cc1cc(N2c3ccccc3C(C)(C)c3ccccc32)ccc1-c1cc(-c2ccc(N3c4ccccc4C(C)(C)c4ccccc43)cc2C)ncn1
photoluminescence quantum yield [1]: 0.71

Compound: CCCCCCN(CCCCCC)c1ccc(C#Cc2ccc(C(F)(F)F)cc2)cc1
photoluminescence quantum yield (in CO): 0.0074
photoluminescence quantum yield (in ClCCl): 0.24

Compound: CN(C)/C=N\c1ccc2c3c(cccc13)C(=O)c1ccccc1-2
photoluminescence quantum yield (in C1CCOC1): 0.23
photoluminescence quantum yield (in CCCCCC): 0.31
photoluminescence quantum yield (in CCO): 0.26
photoluminescence quantum yield (in CCOC(C)=O): 0.28
photoluminescence quantum yield (in CN(C)C=O): 0.2
photoluminescence quantum yield (in CO): 0.27
photoluminescence quantum yield (in Cc1ccccc1): 0.66
photoluminescence quantum yield (in ClC(Cl)(Cl)Cl): 0.24
photoluminescence quantum yield (in ClC(Cl)Cl): 0.55
photoluminescence quantum yield (in ClCCl): 0.55
photoluminescence quantum yield (in c1ccccc1): 0.67

Compound: CN(C)c1ccc(C2=Nc3scc(-c4ccc([N+](=O)[O-])cc4)[n+]3[B-](F)(F)O2)cc1
photoluminescence quantum yield (in C1CCOC1): 0.001
photoluminescence quantum yield (in CC#N): 0.001
photoluminescence quantum yield (in Cc1ccccc1): 0.001
photoluminescence quantum yield (in ClCCl): 0.001

Compound: COCCOc1ccc(OCCOC)c(C=O)c1
photoluminescence quantum yield (in CC(C)(C)O): 0.13
photoluminescence quantum yield (in CC(C)CO): 0.21
photoluminescence quantum yield (in CC(C)O): 0.21
photoluminescence quantum yield (in CCCCO): 0.23
photoluminescence quantum yield (in CCCO): 0.25
photoluminescence quantum yield (in CCO): 0.2
photoluminescence quantum yield (in CN(C)C=O): 0.03
photoluminescence quantum yield (in CNC=O): 0.14
photoluminescence quantum yield (in CO): 0.24
photoluminescence quantum yield (in NC=O): 0.44
photoluminescence quantum yield (in O): 0.11

Compound: N#Cc1ccc(-c2ccc3c(c2)c2cc(-c4ccc(C#N)cc4)ccc2c2c3nc(-c3ccc(-c4ccc(N(c5ccccc5)c5ccccc5)cc4)cc3)n2-c2ccccc2)cc1
photoluminescence quantum yield (in C1CCOC1): 0.54
photoluminescence quantum yield (in CC#N): 0.51
photoluminescence quantum yield (in CCCCCC): 0.82
photoluminescence quantum yield (in CCOCC): 0.9

Compound: CCN(CC)c1ccc([N+]2=Cc3ccc4c5c(ccc4c3O[B-]2(c2ccccc2)c2ccccc2)C=[N+](c2ccc(N(CC)CC)cc2)[B-](c2ccccc2)(c2ccccc2)O5)cc1
photoluminescence quantum yield (in Cc1ccccc1): 0.4
photoluminescence quantum yield (in ClCCl): 0.29

Compound: CCOCCOCCOC(=O)/C=C/C1=CC2=C(c3c(C)cc(C)cc3C)c3cccn3[B-](F)(F)[N+]2=C1
photoluminescence quantum yield (in ClCCl): 0.35

Compound: CC(C)(C)c1ccc(-c2cc(-c3ccc(-c4cc(-c5ccc(C(C)(C)C)cc5)c(C#N)s4)s3)sc2C#N)cc1
photoluminescence quantum yield (in ClCCl): 0.17

Compound: CN(C)c1ccc(C#Cc2cc(C#Cc3ccc(N(C)C)cc3)c3ccc4c(C#Cc5ccc(C(F)(F)F)cc5)cc(C#Cc5ccc(N(C)C)cc5)c5ccc2c3c54)cc1
photoluminescence quantum yield (in ClCCl): 0.65

Compound: O=S(=O)(c1ccc(-c2ccc3c(c2)c2ccccc2n3-c2ccccc2)cc1)c1ccc(-c2ccc3c(c2)c2ccccc2n3-c2ccccc2)cc1
photoluminescence quantum yield (in Cc1ccccc1): 1

Compound: CN(C)c1ccc(C#Cc2ccc(-c3nc(C#N)c(C#N)n3C)cc2)cc1
photoluminescence quantum yield (in C1CCCCC1): 0.84
photoluminescence quantum yield (in CC#N): 0.005
photoluminescence quantum yield (in CO): 0.003
photoluminescence quantum yield (in ClC(Cl)Cl): 0.88

Compound: COc1cc(OC)cc(C2=[O+][B-](F)(F)OC(c3ccc4cc(OC)ccc4c3)=C2)c1
photoluminescence quantum yield (in CC#N): 0.22
photoluminescence quantum yield (in CC(C)=O): 0.37
photoluminescence quantum yield (in CCCCCC): 0.26
photoluminescence quantum yield (in Cc1ccccc1): 0.79
photoluminescence quantum yield (in ClCCl): 0.95

Compound: Cc1nnc(-c2cc(-c3nnc(C)o3)c(-n3c4ccccc4c4ccccc43)cc2-n2c3ccccc3c3ccccc32)o1
photoluminescence quantum yield (in Cc1ccccc1): 0.068
photoluminescence quantum yield [1]: 0.59

Compound: c1ccc2c(c1)c1ccccc1n2-c1ccc2cc(-c3ccc(-c4ccc(-c5cc6ccc(-n7c8ccccc8c8ccccc87)cc6o5)cc4)cc3)oc2c1
photoluminescence quantum yield (in Cc1ccccc1): 0.96
photoluminescence quantum yield (in c1ccc2c(c1)c1ccccc1n2-c1ccc(-c2ccc(-n3c4ccccc4c4ccccc43)cc2)cc1): 1

Compound: Cc1ccccc1-c1nc(-c2ccccc2C)nc(-c2ccc(N3c4ccccc4C4(c5ccccc5-c5ccccc54)c4ccccc43)cc2C)n1
photoluminescence quantum yield [1]: 0.62

Compound: CCC1=C(C)C2=C(C)c3c(I)c(I)c(I)n3[B-](F)(F)[N+]2=C1C
photoluminescence quantum yield (in C1CCCCC1): 0.1
photoluminescence quantum yield (in CC(C)=O): 0.046
photoluminescence quantum yield (in CCO): 0.061
photoluminescence quantum yield (in CCOC(C)=O): 0.072
photoluminescence quantum yield (in CO): 0.051
photoluminescence quantum yield (in OCC(F)(F)F): 0.04

Compound: C[Si](C)(C)C#CC(C#C[Si](C)(C)C)=Cc1ccc(C=C(C#C[Si](C)(C)C)C#C[Si](C)(C)C)cc1
photoluminescence quantum yield (in ClC(Cl)Cl): 0.01 and 0.03

Compound: COc1ccc(-n2c3ccccc3c3cc(C=C(C#N)C#N)ccc32)cc1
photoluminescence quantum yield (in C1CCOC1): 0.03
photoluminescence quantum yield (in CC#N): 0.01
photoluminescence quantum yield (in CC(C)=O): 0.018
photoluminescence quantum yield (in CCOC(C)=O): 0.05
photoluminescence quantum yield (in CO): 0.015
photoluminescence quantum yield (in CS(C)=O): 0.01
photoluminescence quantum yield (in Cc1ccccc1): 0.15
photoluminescence quantum yield (in ClC(Cl)Cl): 0.035

The next lines start with the values.

photoluminescence quantum yield (in ClCCl): 0.36
Compound: Cc1cccc(C)c1N1C(c2ccccc2)=Cc2cccc[n+]2[B-]1(F)F

photoluminescence quantum yield (in ClCCl): 0.144
Compound: Oc1ccccc1-c1nc(-c2ccccc2)c2ccccn12

photoluminescence quantum yield (in CCCCCC): 0.24
Compound: CC(C)(C)c1cc2ccc3cc(C(C)(C)C)cc4c(N(c5ccccc5)c5ccccc5)cc(c1)c2c34

photoluminescence quantum yield (in O): 0.002
Compound: COc1cc(/C=C/C(=O)O)ccc1O

photoluminescence quantum yield (in ClCCl): 0.44
Compound: C[Si]1(C)O[Si](C)(C)c2cc3nc4ccc([N+](=O)[O-])cc4c(-c4ccccc4)c3cc2[Si](C)(C)O1

photoluminescence quantum yield (in C1CCCCC1): 0.062
photoluminescence quantum yield (in CC#N): 0.32
photoluminescence quantum yield (in CCCCCC): 0.16
photoluminescence quantum yield (in CCO): 0.19
photoluminescence quantum yield (in O): 0.0019
photoluminescence quantum yield (in OCC(F)(F)F): 0.0054
Compound: N#Cc1cccc(N)c1

photoluminescence quantum yield (in C1CCCCC1): 0.65
photoluminescence quantum yield (in C1CCOC1): 0.73
photoluminescence quantum yield (in CC#N): 0.58
photoluminescence quantum yield (in ClC(Cl)Cl): 0.8
photoluminescence quantum yield (in c1ccccc1): 0.89
Compound: Cc1cc(C)c(B(c2c(C)cc(C)cc2C)c2cc3ccc4ccccc4c3c3c2ccc2ccccc23)c(C)c1

photoluminescence quantum yield (in C1CCCCC1): 0.89
photoluminescence quantum yield (in CC#N): 0.86
photoluminescence quantum yield (in CC(C)O): 0.96
photoluminescence quantum yield (in CO): 0.84
photoluminescence quantum yield (in CS(C)=O): 0.98
photoluminescence quantum yield (in ClC(Cl)Cl): 0.96
photoluminescence quantum yield (in c1ccccc1): 0.85
Compound: CN(C)c1ccc2nc(-c3ccc(C(=O)O)cc3)sc2c1

photoluminescence quantum yield (in ClCCl): 0.32
Compound: COc1ccc(C#Cc2nc3ccccc3nc2-c2csc(OC)c2)cc1

photoluminescence quantum yield (in CO): 0.52
Compound: Cc1cc(C)c(B(c2ccsc2-c2sccc2P(=O)(c2ccccc2)c2ccccc2)c2c(C)cc(C)cc2C)c(C)c1

photoluminescence quantum yield (in CS(C)=O): 0.6
Compound: N#Cc1c(/C=C/c2ccc(N(c3ccccc3)c3ccccc3)cc2)cc(-c2ccccc2)cc1N1CCCCC1

photoluminescence quantum yield (in CC#N): 0.04
photoluminescence quantum yield (in CCCCCC): 0.08
photoluminescence quantum yield (in CO): 0.16
photoluminescence quantum yield (in ClC(Cl)Cl): 0.07
photoluminescence quantum yield (in ClCCl): 0.06
Compound: CC1=CC(C)=[N+]2C1=C(c1ccc3cccnc3n1)c1c(C)cc(C)n1[B-]2(F)F

photoluminescence quantum yield (in ClCCl): 0.52
Compound: CN(C)c1cc(-c2ccccc2)cc2ccccc12

photoluminescence quantum yield (in ClCCl): 0.1
Compound: CC(C)(C)OC(=O)/C=C/C1=CC2=C(c3ccccc3)c3cccn3[B-](F)(F)[N+]2=C1

photoluminescence quantum yield (in C1CCOC1): 0.287
Compound: O=c1oc2cccc3c4cccc5ccc6c7ccccc7c1c(c23)c6c54

photoluminescence quantum yield (in C1COCCO1): 0.64
photoluminescence quantum yield (in CC#N): 0.55
photoluminescence quantum yield (in CO): 0.87
photoluminescence quantum yield (in ClCCl): 0.42
photoluminescence quantum yield (in O): 0.95
Compound: COC(=O)c1nc2cnc(N)nc2n1Cc1ccccc1

photoluminescence quantum yield (in ClCCl): 0.182
Compound: C(S/C=C/c1ccc(-c2ccc(/C=C/SC=C3CCCC3)cc2)cc1)=C1CCCC1

photoluminescence quantum yield (in ClCCl): 0.96
Compound: O=c1c2ccccc2nc2ccccn12

photoluminescence quantum yield (in ClC(Cl)Cl): 0.04
Compound: FC(F)(F)c1ccc(-c2ncc3ccccn23)cc1

photoluminescence quantum yield (in CS(C)=O): 0.48
Compound: Clc1ccccc1-c1nc2sc3ccccc3c2s1

photoluminescence quantum yield (in ClC(Cl)Cl): 0.961
Compound: c1ccc2c(-c3ccncc3)c3c(nc2c1)-c1cc2c(cc1CC3)-c1nc3ccccc3c(-c3ccncc3)c1CC2

photoluminescence quantum yield (in CC#N): 0.61
Compound: O=c1oc2ccccc2cc1/C=C/c1ccccc1

photoluminescence quantum yield (in C1CCOC1): 0.23
Compound: N#Cc1c(N2CCCCC2)cc(-c2ccc(-c3ccccc3)s2)c2c1CCc1ccccc1-2

photoluminescence quantum yield (in CCO): 0.35
Compound: Cc1cc(=O)oc2ccc3ccc(-c4cn(Cc5ccccc5)nn4)cc3c12

photoluminescence quantum yield (in CCO): 0.0846
photoluminescence quantum yield (in ClCCl): 0.111
photoluminescence quantum yield (in O): 0.01
Compound: O=Cc1ccc(-c2cccc(-c3nc4ccccc4s3)c2O)o1

photoluminescence quantum yield (in ClC(Cl)Cl): 0.15
Compound: CC(C)(C)c1ccc2oc3nc4oc5ccc(-n6c7ccccc7c7cc(-n8c9ccccc9c9ccccc98)ccc76)cc5c4cc3c2c1

photoluminescence quantum yield (in ClC(Cl)Cl): 0.82
Compound: F[B-]1(F)n2c(ccc2-c2cccs2)C(c2ccc(Br)cc2)=C2C=CC(c3cccs3)=[N+]21
